# Values of other authors in patent publication US20190364946A1, “POWDERS AND TABLETS COMPRISING OMEGA-3 FATTY ACID DERIVATIVES AND METHODS FOR THEIR PRODUCTION” (OMEGATRI AS, priority 2016, published 2019).
# Settings: for HLB value: from commercial and scientific sources; for Surfactants HLB: HLB of added surfactant or surfactant mixture
Substance,HLB value,Surfactants HLB
sorbitan monostearate,4.7,–
Span 85,–,1.8
Span 80,–,4.3
sorbitan stearate,4.7,–
